How the values were obtained:
M0 macrophages = assay: Western blot (arginase-1) of M0 macrophages with direct addition of genipin to culture medium; assay type: cell-based, rat; conditions: for arginase-1 expression in genipin treated M0 (M0-GE): 12.5 μg/ml genipin added directly to culture medium, versus cytokine induced M2
Description: 7b. […] A second set of experiments included the following groups: 1) Tissue culture plate with M0-polarization medium, 2) Tissue culture plate with M1-polarization medium, 3) Tissue culture plate with M2-polarization medium, 4) Tissue culture plate with M0-polarization medium with direct addition of genipin, 5) M0 subtype cells seeded on uncrosslinked collagen threads, 6) M0 subtype cells seeded on genipin crosslinked collagen threads. In this design, Groups 1-3 constitute the positive controls. […] Comparison of group 5 with group 6 determines how genipin crosslinking of collagen affect the polarization status of M0 subtype. For group 4, genipin (Wako Pure Chemical Industries, catalog #078-03021, Richmond, Va.) in 0.1% dimethyl sulfoxide (DMSO, Sigma-Aldrich, USA) (12.5 μg/ml, genipin/DMSO) was directly added to the culture medium. […] Total cell lysate was prepared using RIPA lysis buffer (#50195822), phenylmethylsulfonylfluoride (PMSF) (#NC0417414) and protease/phosphatase inhibitor (#50193743) purchased from Cell Signaling Technology. The protein concentration in the cell lysate was estimated using DC protein assay (BioRad) and 25 μg protein was resolved using 4-20% Mini-PROTEAN gels (#4561094, BioRad) and transferred to a nitrocellulose membrane (#1620213, BioRad). The membrane was blocked in 5% non-fat dry milk/1% Tween 20 for 2 hr at room temperature. They were incubated with primary antibodies anti-Arg1 for M2 (sc-271430), anti-iNOS for M1 (sc-7271), pSTAT6 (#9361S), PPAR-gamma (sc-7273) and anti-GAPDH (sc-365062) as the housekeeping protein overnight at 4° C. Following day, the blots were washed in TBST and incubated with anti-mouse secondary antibody (sc-516102) conjugated with horseradish peroxidase detected by ECL-chemiluminescence, then underwent autoradiography using BioBlue-Lite™ film (Alkali Scientific, FL). Quantitative analysis of the protein bands was performed using the Image J.

[1] = 12.5 μg/ml; cited from earlier work
[2] = test system: LPS-stimulated microglia cells derived from rat brain; conditions: cited from earlier work
pSTAT6 and PPAR-γ = assay: Western blot of signaling pathways in genipin induced M2 polarization; assay type: cell-based, rat; conditions: genipin treated M0 (M0-GE)
Description: 7c. Investigation of signaling pathways involved in M2 polarization by genipin: A third set of experiments included the following groups: 1) Tissue culture plate with M2-polarization medium, 2) Tissue culture plate with M0-polarization medium with direct addition of genipin, 3) Tissue culture plate with M0-polarization medium. In this design, Groups 1 and 3 represent the positive and negative controls. Total cell lysate was prepared using RIPA lysis buffer (#50195822), phenylmethylsulfonylfluoride (PMSF) (#NC0417414) and protease/phosphatase inhibitor (#50193743) purchased from Cell Signaling Technology. The protein concentration in the cell lysate was estimated using DC protein assay (BioRad) and 25 μg protein was resolved using 4-20% Mini-PROTEAN gels (#4561094, BioRad) and transferred to a nitrocellulose membrane (#1620213, BioRad). The membrane was blocked in 5% non-fat dry milk/1% Tween 20 for 2 hr at room temperature. […] Following day, the blots were washed in TBST and incubated with anti-mouse secondary antibody (sc-516102) conjugated with horseradish peroxidase detected by ECL-chemiluminescence, then underwent autoradiography using BioBlue-Lite™ film (Alkali Scientific, FL). Quantitative analysis of the protein bands was performed using the Image J.

human endothelial cells = conditions: cited from earlier work
[3] = test system: LPS-stimulated RAW 264.7 murine macrophages cell line; conditions: cited from earlier work

## COC(=O)C1=CO[C@@H](O)[C@@H]2C(CO)=CC[C@H]12 [genipin]
M0 macrophages
  arginase-1 expression in genipin treated M0 (M0-GE): higher than for the M2 subtype induced with standard cytokines
M0 macrophages; listed as soluble genipin
  arginase-1 expression in genipin treated M0 (M0-GE): moderately greater than a potent cytokine
M0 macrophages; M0GE vs. M0GES
  increase in Arg1 expression, soluble genipin compared to genipin presented via crosslinked collagen: approximately 3 fold
[1]
  toxicity of genipin concentration: subtoxic
[2]
  IL-10 and TNF-α production: leads to IL-10 and TNF-α production
pSTAT6 and PPAR-γ
  pSTAT6 expression: significantly higher compared to M2 polarization induced by IL-4
Human endothelial cells
  TNF-α-induced VCAM-1 expression: suppress
[3]
  TNF-α and IL-6 (pro-inflammatory markers): suppress

Source: patent publication US20210228771A1, “BIOLOGIC MATERIAL COMPRISING A CROSSLINKED STRUCTURAL PROTEIN AND MACROPHAGES SEEDED ON THE CROSSLINKED STRUCTURAL PROTEIN” (CASE WESTERN RESERVE UNIVERSITY, priority 2020, published 2021)
